Laboratory results taken from patent US20170008921A1, “C-3 NOVEL TRITERPENONE WITH C-28 REVERSE AMIDE DERIVATIVES AS HIV INHIBITORS” (HETERO RESEARCH FOUNDATION, priority 2015, published 2017).
Structures can show the parent of a compound that is named as a salt. Where two headings read alike, the source gives them in different places.

Columns and labels:
[1] = Single dose oral pharmacokinetic study; format: in vivo; settings: mouse, Mice oral PK @30 mg/kg, plasma, vehicle 10% Solutol+20% PEG; for AUC(0-t): read-out: AUC0-t; for Cmax: read-out: Cmax
Description: The test item was administered through oral route to animals (rat/mice) at 30 mg/kg dose in a suitable vehicle (10% Solutol+20% PEG) at 10 ml/kg dose volume. Blood samples (˜50 μL at each time point) were collected from retro-orbital plexus using K3 EDTA as anticoagulant in eppendorf tubes at defined time intervals 30 minutes, 1 hour, 2 hour, 4 hour, 8 hour, 24 hour & 48 hour under light ether anaesthesia. The samples were centrifuged at 3500×g to separate plasma and stored at −80° C. until analysis. Plasma 25 μl for Mice were processed as per described in sample preparation.
Standard solutions of the test compound 1 mg/mL solutions were prepared in DMSO and further dilutions were made in methanol. […] To the test compound plasma extraction was carried out using Acetonitrile precipitation. After reconstitution with solvent (50% Acetonitrile in Buffer) samples were analyzed by LCMSMS to get the concentrations to calculate PK Parameters.

[2] = Cyto-toxicity (MTT assay); format: cell-based
Description: On day 1 calculate the number of cells required for the assay and seed 3×10^4 cells in 200 μl per well. Weigh the compound and dissolve it in DMSO to get 10 mM stock which is further diluted to 3 mM and 1 mM. […] Add DMSO to controls in a way to obtain final concentration of solvent that is not greater than 1%. Incubate for 4 days in 5% CO2 incubator at 37° C. On day 4, 100 μl of medium was removed from each well without disturbing the cells. Add 10 μl of MTT reagent and incubate for 4 hours at 5% CO2 incubator at 37° C. for formation of crystals. Add 200 μl of 0.1N acidic isopropanol to dissolve the crystals and read the plate at 590 nm. The values are mentioned in below Table-3 and Table-3A.

Structure (SMILES)	AUC(0-t) [1]	Cmax [1]	viability at 4 days, 0.01 µM [2]	viability at 4 days, 0.1 µM [2]	viability at 4 days, 1 µM [2]	also measured
Cc1cc(C(=O)NC(C)(C)C(=O)N[C@@]23CC[C@]4(C)[C@H](CC[C@@H]5[C@@]6(C)CC[C@H](OC(=O)[C@H]7C[C@@H](C(=O)O)C7(C)C)C(C)(C)[C@@H]6CC[C@]54C)C2=C(C(C)C)C(=O)C3)c(C)o1 [Example 33, (1R,3S)-3-((((3aR,5aR,5bR,7aR,9S,11aR,11bR,13aS)-3a-(2-(2,5-dimethylfuran-3-carboxamido)-2-methylpropanamido)-1-isopropyl-5a,5b,8,8,11a-pentamethyl-2-oxo-3,3a,4,5,5a,5b,6,7,7a,8,9,10,11,11a,11b,12,13,13a-octadecahydro-2H-cyclopenta[a]chrysen-9-yl)oxy)carbonyl)-2,2-dimethylcyclobutane-1-carboxylic acid]	231 µg·h/mL	11400 ng/mL	–	–	–	–
CC(C)C1=C2[C@H]3CC[C@@H]4[C@@]5(C)CC[C@H](OC(=O)[C@H]6C[C@@H](C(=O)O)C6(C)C)C(C)(C)[C@@H]5CC[C@@]4(C)[C@]3(C)CC[C@@]2(NC(=O)C2(NC(=O)c3ccc(F)cc3)CC2)CC1=O [Example 39, (1R,3S)-3-((((3aR,5aR,5bR,7aR,9S,11aR,11bR,13aS)-3a-(1-(4-fluorobenzamido)cyclopropane-1-carboxamido)-1-isopropyl-5a,5b,8,8,11a-pentamethyl-2-oxo-3,3a,4,5,5a,5b,6,7,7a,8,9,10,11,11a,11b,12,13,13a-octadecahydro-2H-cyclopenta[a]chrysen-9-yl)oxy)carbonyl)-2,2-dimethylcyclobutane-1-carboxylic acid]	–	–	29%	2%	0%	–
CC(C)C1=C2[C@H]3CC[C@@H]4[C@@]5(C)CC[C@H](OC(=O)[C@H]6C[C@@H](C(=O)O)C6(C)C)C(C)(C)[C@@H]5CC[C@@]4(C)[C@]3(C)CC[C@@]2(NC(=O)C2(NC(=O)c3cccnc3N3CCOCC3)CCC2)CC1=O [Example 45, (1R,3S)-3-((((3aR,5aR,5bR,7aR,9S,11aR,11bR,13aS)-1-isopropyl-5a,5b,8,8,11a-pentamethyl-3a-(1-(2-morpholinonicotinamido)cyclobutane-1-carboxamido)-2-oxo-3,3a,4,5,5a,5b,6,7,7a,8,9,10,11,11a,11b,12,13,13a-octadecahydro-2H-cyclopenta[a]chrysen-9-yl)oxy)carbonyl)-2,2-dimethylcyclobutane-1-carboxylic acid]	214 µg·h/mL	21200 ng/mL	–	–	–	–
Cc1ccc(C(=O)NC2(C(=O)N[C@@]34CC[C@]5(C)[C@H](CC[C@@H]6[C@@]7(C)CC[C@H](OC(=O)[C@H]8C[C@@H](C(=O)O)C8(C)C)C(C)(C)[C@@H]7CC[C@]65C)C3=C(C(C)C)C(=O)C4)CCCCC2)cn1 [Example 49, (1R,3S)-3-((((3aR,5aR,5bR,7aR,9S,11aR,11bR,13aS)-1-isopropyl-5a,5b,8,8,11a-pentamethyl-3a-(1-(6-methylnicotinamido)cyclohexane-1-carboxamido)-2-oxo-3,3a,4,5,5a,5b,6,7,7a,8,9,10,11,11a,11b,12,13,13a-octadecahydro-2H-cyclopenta[a]chrysen-9-yl)oxy)carbonyl)-2,2-dimethylcyclobutane-1-carboxylic acid]	–	–	56%	12%	4%	–
CC(C)C1=C2[C@H]3CC[C@@H]4[C@@]5(C)CC[C@H](OC(=O)[C@H]6C[C@@H](C(=O)O)C6(C)C)C(C)(C)[C@@H]5CC[C@@]4(C)[C@]3(C)CC[C@@]2(NC(=O)C(C)(C)NC(=O)[C@H]2CCCNC2)CC1=O [Example 52, (1R,3S)-3-((((3aR,5aR,5bR,7aR,9S,11aR,11bR,13aS)-1-isopropyl-5a,5b,8,8,11a-pentamethyl-3a-(2-methyl-2-((S)-piperidine-3-carboxamido)propan amido)-2-oxo-3,3a,4,5,5a,5b,6,7,7a,8,9,10,11,11a,11b,12,13,13a-octadecahydro-2H-cyclopenta[a]chrysen-9-yl)oxy)carbonyl)-2,2-dimethylcyclobutane-1-carboxylic acid hydrochloride]	–	–	–	–	–	viability at 4 days, 0.001 µM ([2]; 0.001 μM, MTT, 4 days (Table 3A), read-out: Cytotoxicity % viability): 83%; viability at 4 days, 0.003 µM ([2]; 0.003 μM, MTT, 4 days (Table 3A), read-out: Cytotoxicity % viability): 89%; viability at 4 days, 0.01 µM ([2]; 0.01 μM, MTT, 4 days (Table 3A), read-out: Cytotoxicity % viability): 59%
CC(C)C1=C2[C@H]3CC[C@@H]4[C@@]5(C)CC[C@H](OC(=O)[C@H]6C[C@@H](C(=O)O)C6(C)C)C(C)(C)[C@@H]5CC[C@@]4(C)[C@]3(C)CC[C@@]2(NC(=O)C(C)(C)NC(=O)Cc2ccc(Cl)cc2)CC1=O [Example 53, (1R,3S)-3-((((3aR,5aR,5bR,7aR,9S,11aR,11bR,13aS)-3a-(2-(2-(4-chlorophenyl)acetamido)-2-methylpropanamido)-1-isopropyl-5a,5b,8,8,11a-pentamethyl-2-oxo-3,3a,4,5,5a,5b,6,7,7a,8,9,10,11,11a,11b,12,13,13a-octadecahydro-2H-cyclopenta[a]chrysen-9-yl)oxy)carbonyl)-2,2-dimethylcyclobutane-1-carboxylic acid]	57.8 µg·h/mL	9750 ng/mL	–	–	–	–
CC(C)C1=C2[C@H]3CC[C@@H]4[C@@]5(C)CC[C@H](OC(=O)[C@H]6C[C@@H](C(=O)O)C6(C)C)C(C)(C)[C@@H]5CC[C@@]4(C)[C@]3(C)CC[C@@]2(NC(=O)C(C)(C)NC(=O)c2cnn3cccnc23)CC1=O [Example 54, (1R,3S)-3-((((3aR,5aR,5bR,7aR,9S,11aR,11bR,13aS)-1-isopropyl-5a,5b,8,8,11a-pentamethyl-3a-(2-methyl-2-(pyrazolo[1,5-a]pyrimidine-3-carboxamido)propanamido)-2-oxo-3,3a,4,5,5a,5b,6,7,7a,8,9,10,11,11a,11b,12,13,13a-octadecahydro-2H-cyclopenta[a]chrysen-9-yl)oxy)carbonyl)-2,2-dimethylcyclobutane-1-carboxylic acid]	402 µg·h/mL	29200 ng/mL	–	–	–	–
CC(C)C1=C2[C@H]3CC[C@@H]4[C@@]5(C)CC[C@H](OC(=O)[C@H]6C[C@@H](C(=O)O)C6(C)C)C(C)(C)[C@@H]5CC[C@@]4(C)[C@]3(C)CC[C@@]2(NC(=O)C(C)(C)NS(C)(=O)=O)CC1=O [Example 63, sodium (1R,3S)-3-((((3aR,5aR,5bR,7aR,9S,11aR,11bR,13aS)-1-isopropyl-5a,5b,8,8,11a-pentamethyl-3a-(2-methyl-2-(methylsulfonamido)propanamido)-2-oxo-3,3a,4,5,5a,5b,6,7,7a,8,9,10,11,11a,11b,12,13,13a-octadecahydro-2H-cyclopenta[a]chrysen-9-yl)oxy)carbonyl)-2,2-dimethylcyclobutane-1-carboxylate]	–	–	51%	16%	0%	–
CC(C)C1=C2[C@H]3CC[C@@H]4[C@@]5(C)CC[C@H](OC(=O)[C@H]6C[C@@H](C(=O)O)C6(C)C)C(C)(C)[C@@H]5CC[C@@]4(C)[C@]3(C)CC[C@@]2(NC(=O)C(C)(C)NCC2(c3ccc(Cl)cc3)CC2)CC1=O [Example 69, (1R,3S)-3-((((3aR,5aR,5bR,7aR,9S,11aR,11bR,13aS)-3a-(2-(((1-(4-chlorophenyl)cyclopropyl)methyl)amino)-2-methylpropanamido)-1-isopropyl-5a,5b,8,8, 11a-pentamethyl-2-oxo-3,3a,4,5,5a,5b,6,7,7a,8,9,10,11,11a,11b,12,13,13a-octadecahydro-2H-cyclopenta[a]chrysen-9-yl)oxy)carbonyl)-2,2-dimethylcyclobutane-1-carboxylic acid]	–	–	42%	8%	8%	–
CC(C)C1=C2[C@H]3CC[C@@H]4[C@@]5(C)CC[C@H](OC(=O)[C@H]6C[C@@H](C(=O)O)C6(C)C)C(C)(C)[C@@H]5CC[C@@]4(C)[C@]3(C)CC[C@@]2(NC(=O)C(C)(C)NCCN(C)C)CC1=O [Example 73, (1R,3S)-3-((((3aR,5aR,5bR,7aR,9S,11aR,11bR,13aS)-3a-(2-((2-(dimethylamino)ethyl)amino)-2-methylpropanamido)-1-isopropyl-5a,5b,8,8,11a-pentamethyl-2-oxo-3,3a,4,5,5a,5b,6,7,7a,8,9,10,11,11a,11b,12,13,13a-octadecahydro-2H-cyclopenta[a]chrysen-9-yl)oxy)carbonyl)-2,2-dimethylcyclobutane-1-carboxylic acid]	–	–	52%	11%	9%	–
CC(C)C1=C2[C@H]3CC[C@@H]4[C@@]5(C)CC[C@H](OC(=O)[C@H]6C[C@@H](C(=O)O)C6(C)C)C(C)(C)[C@@H]5CC[C@@]4(C)[C@]3(C)CC[C@@]2(NC(=O)C(C)(C)NC(=O)OC(C)(C)C)CC1=O [Example 75, (1R,3S)-3-((((3aR,5aR,5bR,7aR,9S,11aR,11bR,13aS)-3a-(2-((tert-butoxycarbonyl)amino)-2-methylpropanamido)-1-isopropyl-5a,5b,8,8,11a-pentamethyl-2-oxo-3,3a,4,5,5a,5b,6,7,7a,8,9,10,11,11a,11b,12,13,13a-octadecahydro-2H-cyclopenta[a]chrysen-9-yl)oxy)carbonyl)-2,2-dimethylcyclobutane-1-carboxylic acid]	–	–	63%	17%	2%	–
